In PubChem BioAssay (NCI):
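Interpolation was linear, between the two tested concentrations surrounding the appropriate level; five concentrations were tested over 48 hours in 96-well plates. At the TGI there is no net growth.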

Columns and labels:
Test in all cases: NCI anticancer screen, dose series, 48 h
SN12C renal = tested on: SN12C renal
A498 renal = tested on: A498 renal
NCI-H460 lung = tested on: NCI-H460 lung
KM20L2 colon = tested on: KM20L2 colon
SNB-19 CNS = tested on: SNB-19 CNS
SW-620 colon = tested on: SW-620 colon
SK-OV-3 ovarian = tested on: SK-OV-3 ovarian
RXF-631 renal = tested on: RXF-631 renal
UACC-257 melanoma = tested on: UACC-257 melanoma
HCT-116 colon = tested on: HCT-116 colon
SF-268 CNS = tested on: SF-268 CNS
LOX IMVI melanoma = tested on: LOX IMVI melanoma
NCI-H23 lung = tested on: NCI-H23 lung
COLO 205 colon = tested on: COLO 205 colon
NCI-H522 lung = tested on: NCI-H522 lung
A549 NSCLC = tested on: A549 NSCLC
SF-539 CNS = tested on: SF-539 CNS
SNB-75 CNS = tested on: SNB-75 CNS
U251 CNS = tested on: U251 CNS
RXF 393 renal = tested on: RXF 393 renal
RPMI-8226 leukemia = tested on: RPMI-8226 leukemia
DLD-1 colon = tested on: DLD-1 colon
SNB-78 CNS = tested on: SNB-78 CNS
TK-10 renal = tested on: TK-10 renal
OVCAR-3 ovarian = tested on: OVCAR-3 ovarian
HOP-18 NSCLC = tested on: HOP-18 NSCLC
M19-MEL melanoma = tested on: M19-MEL melanoma
CCRF-CEM leukemia = tested on: CCRF-CEM leukemia
OVCAR-5 ovarian = tested on: OVCAR-5 ovarian
CAKI-1 renal = tested on: CAKI-1 renal
SK-MEL-28 melanoma = tested on: SK-MEL-28 melanoma
EKVX NSCLC = tested on: EKVX NSCLC
HOP-62 NSCLC = tested on: HOP-62 NSCLC
HT29 colon = tested on: HT29 colon
OVCAR-8 ovarian = tested on: OVCAR-8 ovarian
DMS 114 small cell lung = tested on: DMS 114 small cell lung
IGROV1 ovarian = tested on: IGROV1 ovarian
SK-MEL-5 melanoma = tested on: SK-MEL-5 melanoma
HOP-92 NSCLC = tested on: HOP-92 NSCLC
HL-60(TB) leukemia = tested on: HL-60(TB) leukemia
MALME-3M melanoma = tested on: MALME-3M melanoma
M14 melanoma = tested on: M14 melanoma
OVCAR-4 ovarian = tested on: OVCAR-4 ovarian
ACHN renal = tested on: ACHN renal
UACC-62 melanoma = tested on: UACC-62 melanoma
SF-295 CNS = tested on: SF-295 CNS
UO-31 renal = tested on: UO-31 renal
KM12 colon = tested on: KM12 colon
DMS 273 small cell lung = tested on: DMS 273 small cell lung
K-562 leukemia = tested on: K-562 leukemia
XF 498 CNS = tested on: XF 498 CNS
HCC-2998 colon = tested on: HCC-2998 colon
786-0 renal = tested on: 786-0 renal
NCI-H226 lung = tested on: NCI-H226 lung
LXFL 529 NSCLC = tested on: LXFL 529 NSCLC

Measured: TGI

CN1C2(c3ccccc3)c3c(-c4ccccc4)sc(-c4ccccc4)c3C1(c1ccccc1)C1C(=O)N(c3ccccc3)C(=O)C12 (stereo not given)
> 100 µM: all assays above
